According to patent US20250122188A1, “MODULATORS OF THE INTEGRATED STRESS PATHWAY” (Calico Life Sciences LLC, priority 2016, published 2025):
Read-outs that look alike come from different tables or passages of the source. One block for each compound: values may come before it.

What was measured:
Format in all cases: cell-based
[1] = test system: eIF2B mutant B1 V184; experiment: ATF4-Luc assay, VWMD eIF2B mutant HEK293T ATF4-Fluc cells, B1 V184; conditions: Homo sapiens, HEK-293T
Experimental: (§1) In order to test exemplary compounds of the invention in a cellular context, a stable VWMD cell line was first constructed. The ATF4 reporter was prepared by fusing the human full-length ATF4 5′-UTR (NCBI Accession No. BC022088.2) in front of the firefly luciferase (FLuc) coding sequence lacking the initiator methionine as described in Sidrauski et al (eLife 2013). The construct was used to produce recombinant retroviruses using standard methods and the resulting viral supernatant was used to transduce HEK293T cells, which were then subsequently selected with puromycin to generate a stable cell line.
(§2) HEK293T cells carrying the ATF4 luciferase reporter were plated on polylysine coated 384-well plates (Greiner Bio-one) at 30,000 cells per well. Cells were treated the next day with 1 μg/mL tunicamycin and 200 nM of a compound of Formula (I) for 7 hours. Luminescence was measured using One Glo (Promega) as specified by the manufacturer. Cells were maintained in DMEM with L-glutamine supplemented with 10% heat-inactivated FBS (Gibco) and Antibiotic-Antimycotic solution (Gibco).
(§3) VWMD mutations were introduced into the genome of the HEK293T ATF4-Fluc stable cell lines by using Gene Art CRISPR nuclease vector with OFP Reporter kit (ThermoFisher; see Table 3 below). Guide RNAs were designed using the CRISPR Design Tool (http://crispr.mit.edu) and ligated into the CRISPR OFP Nuclease Vector. To obtain homology directed repair (HDR) incorporating VWMD point mutations in the genome, 150 bp ssDNA ultramer oligos were synthesized by Integrated DNA Technologies containing specific mutations of interest. In addition to the VWMD mutations, the ssDNA HDR templates contained a silent mutation to the PAM site of the CRISPR gRNA sequence (to avoid further Cas9 cutting) and 75 bp of homology on each side of the mutation.
(§4) HEK293T ATF4-Fluc cells were transfected with 500 ng of the CRISPR OFP Nuclease Vector and 1 μL of 10 μM ssDNA HDR template using lipofectamine 3000 (ThermoFisher) or SF Cell Line 4D-nucleofector X Kit (Lonza) according to the manufacturer's instructions. After 2-3 days of recovery, single cells were sorted for positive OFP expression on a FACS Aria II (BD Biosciences) into wells of a 96 well plate and allowed to recover for 1-2 weeks.
(§5) The resulting clones were surveyed for CRISPR editing and HDR by harvesting the genomic DNA with the PureLink Genomic DNA kit (ThermoFisher), amplifying a […] locus near the editing site, and sequencing the amplicon. […] Typical clones obtained were hemizygous for the VWMD point mutation, with one or two alleles harboring the desired mutation, and the remaining alleles knocked out (edited to produce a premature stop codon).

[2] = test system: eIF2B mutant B3 H341Q; experiment: ATF4-Luc assay, VWMD eIF2B mutant HEK293T ATF4-Fluc cells, B3 H341Q; conditions: Homo sapiens, HEK-293T
Experimental: as §1, §2, §3, §4, §5

[3] = test system: eIF2B mutant B3 I346T; experiment: ATF4-Luc assay, VWMD eIF2B mutant HEK293T ATF4-Fluc cells, B3 I346T; conditions: Homo sapiens, HEK-293T
Experimental: as §1, §2, §3, §4, §5

[4] = test system: ATF4 luciferase reporter in HEK293T cells; experiment: ATF4-Luc assay, HEK293T cells carrying the ATF4 luciferase reporter (in vitro model of VWMD); conditions: Homo sapiens, HEK-293T, read-out: ATF4-Luc EC50
Experimental: as §1, §2

[5] = test system: eIF2B mutant B4 R357W; experiment: ATF4-Luc assay, VWMD eIF2B mutant HEK293T ATF4-Fluc cells, B4 R357W; conditions: Homo sapiens, HEK-293T
Experimental: as §1, §2, §3, §4, §5

[6] = test system: eIF2B mutant B4 R483W; experiment: ATF4-Luc assay, VWMD eIF2B mutant HEK293T ATF4-Fluc cells, B4 R483W; conditions: Homo sapiens, HEK-293T
Experimental: as §1, §2, §3, §4, §5

[7] = test system: eIF2B mutant B5 R195H; experiment: ATF4-Luc assay, VWMD eIF2B mutant HEK293T ATF4-Fluc cells, B5 R195H; conditions: Homo sapiens, HEK-293T
Experimental: as §1, §2, §3, §4, §5

[8] = test system: eIF2B mutant B5 R113H; experiment: ATF4-Luc assay, VWMD eIF2B mutant HEK293T ATF4-Fluc cells, B5 R113H; conditions: Homo sapiens, HEK-293T
Experimental: as §1, §2, §3, §4, §5

[9] = HEK293T ATF4 luciferase reporter cells, 1 μg/mL tunicamycin, 7 hours

EC50 [1]: < 10 nM | EC50 [2]: < 10 nM | EC50 [3]: < 10 nM | EC50 [5]: < 10 nM | EC50 [6]: < 10 nM | EC50 [7]: < 10 nM | EC50 [8]: < 10 nM
Structure (SMILES): O=C(COc1ccc(Cl)c(F)c1)NC12CCC(NC(=O)COc3ccc(Cl)c(F)c3)(CC1)[C@H](O)C2 [Compound 298, N,N′-[(2R)-2-hydroxybicyclo[2.2.2]octane-1,4-diyl]bis[2-(4-chloro-3-fluorophenoxy)acetamide]]
EC50 [4, 9]: < 10 nM

EC50 [1]: < 10 nM | EC50 [2]: < 10 nM | EC50 [3]: < 10 nM | EC50 [5]: < 10 nM | EC50 [6]: < 10 nM | EC50 [7]: < 10 nM | EC50 [8]: < 10 nM
Structure (SMILES): O=C(COc1ccc(Cl)cc1)NC12CC(NC(=O)COc3ccc(Cl)cc3)(C1)C2 [Compound 112, N,N′-(bicyclo[1.1.1]pentane-1,3-diyl)bis[2-(4-chlorophenoxy)acetamide]]

EC50 [1]: > 2000 nM | EC50 [2]: > 2000 nM | EC50 [3]: > 2000 nM | EC50 [5]: > 2000 nM | EC50 [6]: > 2000 nM | EC50 [7]: > 2000 nM | EC50 [8]: > 2000 nM
Structure (SMILES): Cc1noc(COCC(=O)NC23CC(NC(=O)COc4ccc(Cl)c(F)c4)(C2)C3)n1 [Compound 217, 2-(4-chloro-3-fluorophenoxy)-N-(3-{2-[(3-methyl-1,2,4-oxadiazol-5-yl)methoxy]acetamido}bicyclo[1.1.1]pentan-1-yl)acetamide]

EC50 [1]: 50 to 250 nM | EC50 [2]: 10 to 50 nM | EC50 [3]: < 10 nM | EC50 [5]: 10 to 50 nM | EC50 [6]: < 10 nM | EC50 [7]: 10 to 50 nM | EC50 [8]: 10 to 50 nM
Structure (SMILES): O=C(COc1ccc(C(F)(F)F)nc1)NC12CC(NC(=O)COc3ccc(Cl)c(F)c3)(C1)C2 [Compound 175, 2-(4-chloro-3-fluorophenoxy)-N-[3-(2-{[6-(trifluoromethyl)pyridin-3-yl]oxy}acetamido)bicyclo[1.1.1]pentan-1-yl]acetamide]

Structure (SMILES): O=C(/C=C/c1ccc(OC(F)(F)F)cn1)NC12CC(NC(=O)COc3ccc(Cl)c(F)c3)(C1)C2 [Compound 376, (2E)-N-{3-[2-(4-chloro-3-fluorophenoxy)acetamido]bicyclo[1.1.1]pentan-1-yl}-3-[5-(trifluoromethoxy)pyridin-2-yl]prop-2-enamide]
EC50 [4, 9]: 250 to 500000 nM

Structure (SMILES): CC(C)(O)c1ccc(OCC(=O)NC23CC(NC(=O)COc4ccc(Cl)c(Cl)c4)(C2)C3)cc1 [Compound 422, 2-(3,4-dichlorophenoxy)-N-(3-{2-[4-(2-hydroxypropan-2-yl)phenoxy]acetamido}bicyclo[1.1.1]pentan-1-yl)acetamide]
EC50 [4, 9]: 250 to 500000 nM

Structure (SMILES): Cc1nc(F)ccc1OCC(=O)NC12CC(NC(=O)COc3ccc(Cl)c(F)c3)(C1)C2 [Compound 249, 2-(4-chloro-3-fluorophenoxy)-N-(3-{2-[(6-fluoro-2-methylpyridin-3-yl)oxy]acetamido}bicyclo[1.1.1]pentan-1-yl)acetamide]
EC50 [4, 9]: 250 to 500000 nM

Structure (SMILES): O=C(CCOCc1cccc(Cl)c1)NC12CC(NC(=O)COc3ccc(Cl)c(F)c3)(C1)C2 [Compound 163, N-{3-[2-(4-chloro-3-fluorophenoxy)acetamido]bicyclo[1.1.1]pentan-1-yl}-3-[(3-chlorophenyl)methoxy]propanamide]
EC50 [4, 9]: 250 to 500000 nM

Structure (SMILES): O=C(CCn1ncc(Cl)cc1=O)NC12CC(NC(=O)COc3ccc(Cl)c(F)c3)(C1)C2 [Compound 104, N-{3-[2-(4-chloro-3-fluorophenoxy)acetamido]bicyclo[1.1.1]pentan-1-yl}-3-(4-chloro-6-oxopyridazin-1(6H)-yl)propanamide]
EC50 [4, 9]: 250 to 500000 nM

Structure (SMILES): Cc1ccc(COCC(=O)NC23CC(NC(=O)COc4ccc(Cl)c(F)c4)(C2)C3)cc1 [Compound 144, 2-(4-chloro-3-fluorophenoxy)-N-(3-{2-[(4-methylphenyl)methoxy]acetamido}-bicyclo[1.1.1]pentan-1-yl)acetamide]
EC50 [4, 9]: 250 to 500000 nM

Structure (SMILES): O=C(COc1ccc(Cl)c(F)c1)NC12CC(NC(=O)Cc3ccc(C(F)(F)F)nc3)(C1)C2 [Compound 342, 2-(4-chloro-3-fluorophenoxy)-N-(3-{2-[6-(trifluoromethyl)pyridin-3-yl]acetamido}bicyclo[1.1.1]pentan-1-yl)acetamide]
EC50 [4, 9]: 250 to 500000 nM

Structure (SMILES): Cc1ccc(CCOCC(=O)NC23CC(NC(=O)COc4ccc(Cl)c(Cl)c4)(C2)C3)cc1 [Compound 154, 2-(3,4-dichlorophenoxy)-N-(3-{2-[2-(4-methylphenyl)ethoxy]acetamido}-bicyclo[1.1.1]pentan-1-yl)acetamide]
EC50 [4, 9]: 250 to 500000 nM

Structure (SMILES): N#Cc1cc(OCC(=O)NC23CC(NC(=O)COc4ccc(Cl)c(F)c4)(C2)C3)ccn1 [Compound 277, 2-(4-chloro-3-fluorophenoxy)-N-(3-{2-[(2-cyanopyridin-4-yl)oxy]acetamido}bicyclo[1.1.1]pentan-1-yl)acetamide]
EC50 [4, 9]: 250 to 500000 nM

Structure (SMILES): O=C(/C=C/c1ccc(C(F)(F)F)nc1)NC12CC(NC(=O)COc3ccc(Cl)c(F)c3)(C1)C2 [Compound 351, (2E)-N-{3-[2-(4-chloro-3-fluorophenoxy)acetamido]bicyclo[1.1.1]pentan-1-yl}-3-[6-(trifluoromethyl)pyridin-3-yl]prop-2-enamide]
EC50 [4, 9]: 250 to 500000 nM

Structure (SMILES): Cc1ccc(OC(=O)NC23CC(NC(=O)COc4ccc(Cl)c(F)c4)(C2)C3)cc1 [Compound 435, 4-methylphenyl {3-[2-(4-chloro-3-fluorophenoxy)acetamido]bicyclo[1.1.1]pentan-1-yl}carbamate]
EC50 ([4]; 7 h): 250 to 500000 nM
